Common to all, as to format: functional
Experiment [1] relates to Mus musculus. Description: Immunosuppressive activity in BALB/c mouse allografted with C57 mouse cardiac tissue assessed as suppression of graft rejection by measuring graft median survival time at 4 mg/kg, IM.
In experiment [2] the test system is Mus musculus. Description: Immunosuppressive activity in anti-CD3-stimulated mouse assessed as reduction in IL-2 level in whole blood at 55 mg/kg, po measured after 8 hrs by flow cytometry analysis. Also noted: scale not given: the % may be the effect or the level left. On the technique in general: A flow cytometer gives signals particle by particle.
The subject of experiment [3] is Mus musculus. Description: Immunosuppressive activity in BALB/c mouse allografted with C57 mouse cardiac tissue assessed as suppression of graft rejection by measuring graft median survival time at 112 mg/kg, po in presence of tacrolimus.
Experiment [4] deals with Mus musculus. Description: Immunosuppressive activity in anti-CD3-stimulated mouse assessed as reduction in IL-2 level in whole blood at 55 mg/kg, po measured after 4 hrs by flow cytometry analysis. Details: scale not given: the % may be the effect or the level left.
Experiment [5] deals with Mus musculus. The experiment can be described thus: Immunosuppressive activity in anti-CD3-stimulated mouse assessed as reduction in IL-2 level in whole blood at 55 mg/kg, po measured after 1 hr by flow cytometry analysis. Also noted: scale not given: the % may be the effect or the level left.
Experiment [6] deals with Mus musculus. Description: Immunosuppressive activity in BALB/c mouse allografted with C57 mouse cardiac tissue assessed as suppression of graft rejection by measuring graft median survival time at 112 mg/kg, po.
For experiment [7], the system named is Mus musculus. The experiment can be described thus: Immunosuppressive activity in anti-CD3-stimulated mouse assessed as reduction in IL-2 level in whole blood at 25 mg/kg, po measured after 4 hr by flow cytometry analysis. Also noted: scale not given: the % may be the effect or the level left.
Experiment [8] relates to Mus musculus. The experiment can be described thus: Immunosuppressive activity in anti-CD3-stimulated mouse assessed as reduction in IL-2 level in whole blood at 25 mg/kg, po measured after 1 hr by flow cytometry analysis. Also noted: scale not given: the % may be the effect or the level left.
For experiment [9], the system named is Mus musculus. The experiment can be described thus: Immunosuppressive activity in anti-CD3-stimulated mouse assessed as reduction in IL-2 level in whole blood at 25 mg/kg, po measured after 8 hr by flow cytometry analysis. Details: scale not given: the % may be the effect or the level left.
For experiment [10], the system named is Mus musculus. The experiment can be described thus: Immunosuppressive activity in anti-CD3-stimulated mouse assessed as reduction in IL-2 level in whole blood at 65 mg/kg, po measured after 4 hrs by flow cytometry analysis. Also noted: scale not given: the % may be the effect or the level left.
The test system of experiment [11] is Mus musculus. The experiment can be described thus: Immunosuppressive activity in anti-CD3-stimulated mouse assessed as reduction in IL-2 level in whole blood at 65 mg/kg, po measured after 1 hr by flow cytometry analysis. Also noted: scale not given: the % may be the effect or the level left.
In experiment [12] the test system is Mus musculus. The experiment can be described thus: Immunosuppressive activity in anti-CD3-stimulated mouse assessed as reduction in IL-2 level in whole blood at 65 mg/kg, po measured after 8 hrs by flow cytometry analysis. Also noted: scale not given: the % may be the effect or the level left.
The test system of experiment [13] is Mus musculus. Description: Immunosuppressive activity in BALB/c mouse allografted with C57 mouse cardiac tissue assessed as suppression of graft rejection by measuring graft median survival time at 83 mg/kg, po in presence of tacrolimus.
Experiment [14] has as its system Mus musculus. The experiment can be described thus: Immunosuppressive activity in anti-CD3-stimulated mouse assessed as reduction in IL-2 level in whole blood at 40 mg/kg, po measured after 8 hrs by flow cytometry analysis. Details: scale not given: the % may be the effect or the level left.
The test system of experiment [15] is Mus musculus. The experiment can be described thus: Immunosuppressive activity in BALB/c mouse allografted with C57 mouse cardiac tissue assessed as suppression of graft rejection by measuring graft median survival time at 83 mg/kg, po.
Experiment [16] relates to Mus musculus. The experiment can be described thus: Immunosuppressive activity in anti-CD3-stimulated mouse assessed as reduction in IL-2 level in whole blood at 40 mg/kg, po measured after 1 hr by flow cytometry analysis. Details: scale not given: the % may be the effect or the level left.
In experiment [17] the test system is Mus musculus. The experiment can be described thus: Immunosuppressive activity in anti-CD3-stimulated mouse assessed as reduction in IL-2 level in whole blood at 40 mg/kg, po measured after 4 hrs by flow cytometry analysis. Details: scale not given: the % may be the effect or the level left.
In experiment [18] the test system is Mus musculus. Description: Immunosuppressive activity in anti-CD3-stimulated mouse assessed as reduction in IL-2 level in whole blood at 50 mg/kg, po measured after 8 hr by flow cytometry analysis. Also noted: scale not given: the % may be the effect or the level left.
Experiment [19] relates to Mus musculus. Description: Immunosuppressive activity in anti-CD3-stimulated mouse assessed as reduction in IL-2 level in whole blood at 50 mg/kg, po measured after 4 hrs by flow cytometry analysis. Details: scale not given: the % may be the effect or the level left.
Experiment [20] relates to Mus musculus. The experiment can be described thus: Immunosuppressive activity in anti-CD3-stimulated mouse assessed as reduction in IL-2 level in whole blood at 50 mg/kg, po measured after 1 hr by flow cytometry analysis. Details: scale not given: the % may be the effect or the level left.

Our source for the MST and Activity values is ChEMBL document CHEMBL5365536, “Synthesis of mizoribine prodrugs and their in vivo evaluation as immunosuppressive agents” (2023).

As for `C=CC[C@@H]1/C=C(\C)C[C@H](C)C[C@H](OC)[C@H]2O[C@@](O)(C(=O)C(=O)N3CCCC[C@H]3C(=O)O[C@H](/C(C)=C/[C@@H]3CC[C@@H](O)[C@H](OC)C3)[C@H](C)[C@@H](O)CC1=O)[C@H](C)C[C@@H]2OC` [TACROLIMUS ANHYDROUS], the MST in the experiment with Mus musculus [1] was determined as 8 days.

For `NC(=O)c1ncn([C@@H]2O[C@H](COC(=O)[C@@H](N)CC(=O)OCc3ccccc3)[C@@H](O)[C@H]2O)c1O.O=C(O)C(F)(F)F`, the Activity stood at 27.7% in the experiment on Mus musculus [2], 32.7% with Mus musculus [4] and 77% with Mus musculus [5]. Moreover, the MST in the experiment on Mus musculus [3] turned out to be 15.5 days; in the experiment with Mus musculus [6], 11 days.

As to `NC(=O)c1ncn([C@@H]2O[C@H](CO)[C@@H](O)[C@H]2O)c1O` [MIZORIBINE], the values for the Activity in the experiment with Mus musculus [7], in the experiment with Mus musculus [8] and with Mus musculus [9] were 8.6%, 55.6% and 7.3%, respectively.

As to `CC(C)CCOC(=O)C[C@H](NP(=O)(OC[C@H]1O[C@@H](n2cnc(C(N)=O)c2O)[C@H](O)[C@@H]1O)Oc1ccccc1)C(=O)OCCC(C)C` (stereo not given in full), the values for the Activity in the experiment on Mus musculus [10], in the experiment on Mus musculus [11] and with Mus musculus [12] were 18.3%, 14.7% and 17.5%, respectively.

Regarding `CC(C)(C)C(=O)NC(=O)c1ncn([C@@H]2O[C@H](COC(=O)C(C)(C)C)[C@@H](O)[C@H]2O)c1O`, the MST with Mus musculus [13] was 55 days; in the experiment with Mus musculus [15] it was 11 days. Further, the Activity in the experiment on Mus musculus [14] is listed as 61.3%; with Mus musculus [16], 19.4%; in the experiment on Mus musculus [17], 64.4%.

Take `COc1c(C)c2c(c(O)c1C/C=C(\C)CCC(=O)OCCN1CCOCC1)C(=O)OC2` [MYCOPHENOLATE MOFETIL]: the Activity is listed as 81.7% in the experiment on Mus musculus [18], 52.3% in the experiment with Mus musculus [19] and 3.4% in the experiment on Mus musculus [20].
